According to the supplement of paper PMC10307832:

Assays:
Experiment in all cases: relative viability (nuclei count vs DMSO), 5 days (fraction); higher = more cells survive
Tivantinib + Vorinostat = compound: O=C1NC(=O)[C@@H](c2cn3c4c(cccc24)CCC3)[C@@H]1c1c[nH]c2ccccc12 [Tivantinib] + O=C(CCCCCCC(=O)Nc1ccccc1)NO [Vorinostat] (partner 1 µM)
In short: (§1)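 Each reported value is a median over duplicate plates. It expresses relative viability: treated-well nuclei count divided by vehicle-well nuclei count. Lung cancer cell lines in 1536-well plates were dosed by pin tool a day after seeding, alone with one drug or with a fixed anchor-drug dose plus five library-drug doses (not always all listed) in √10 steps, and nuclei were counted after 5 days.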

Crenolanib + Phenformin = compound: CC1(COc2ccc3c(c2)ncn3-c2ccc3cccc(N4CCC(N)CC4)c3n2)COC1 [Crenolanib] + N=C(N)NC(=N)NCCc1ccccc1 [Phenformin] (partner 250 µM)
In short: as §1

Tivantinib + Lapatinib = compound: O=C1NC(=O)[C@@H](c2cn3c4c(cccc24)CCC3)[C@@H]1c1c[nH]c2ccccc12 [Tivantinib] + CS(=O)(=O)CCNCc1ccc(-c2ccc3ncnc(Nc4ccc(OCc5cccc(F)c5)c(Cl)c4)c3c2)o1 [Lapatinib] (partner 2 µM)
In short: as §1

Crenolanib + Vorinostat = compound: CC1(COc2ccc3c(c2)ncn3-c2ccc3cccc(N4CCC(N)CC4)c3n2)COC1 [Crenolanib] + O=C(CCCCCCC(=O)Nc1ccccc1)NO [Vorinostat] (partner 1 µM)
In short: as §1

Row | Cell Line | relative viability (Tivantinib + Vorinostat; first compound 0.01 µM) | relative viability (Tivantinib + Vorinostat; first compound 0.03162 µM) | relative viability (Tivantinib + Vorinostat; first compound 0.1 µM) | relative viability (Tivantinib + Vorinostat; first compound 0.3162 µM) | relative viability (Crenolanib + Phenformin; first compound 0.01 µM) | relative viability (Crenolanib + Phenformin; first compound 0.03162 µM) | relative viability (Crenolanib + Phenformin; first compound 0.1 µM) | relative viability (Crenolanib + Phenformin; first compound 0.3162 µM) | relative viability (Crenolanib + Phenformin; first compound 1 µM) | relative viability (Tivantinib + Lapatinib; first compound 0.01 µM) | relative viability (Tivantinib + Lapatinib; first compound 0.03162 µM) | relative viability (Tivantinib + Lapatinib; first compound 0.1 µM) | relative viability (Tivantinib + Lapatinib; first compound 0.3162 µM) | relative viability (Crenolanib + Vorinostat; first compound 0.01 µM) | relative viability (Crenolanib + Vorinostat; first compound 0.03162 µM) | relative viability (Crenolanib + Vorinostat; first compound 0.1 µM) | relative viability (Crenolanib + Vorinostat; first compound 0.3162 µM) | relative viability (Crenolanib + Vorinostat; first compound 1 µM)
1 | NCI-H2087 | 0.724 | 0.672 | 0.722 | 0.477 | 0.466 | 0.488 | 0.434 | 0.524 | 0.471 | 1.1 | 1.16 | 0.862 | 1.13 | 0.657 | 0.779 | 0.968 | 0.664 | 0.877
2 | NCI-H1755 | 0.861 | 0.793 | 0.695 | 0.917 | 0.666 | 0.642 | 0.61 | 0.613 | 0.574 | 1.07 | 1.02 | 0.983 | 1.15 | 0.739 | 0.941 | 0.662 | 0.903 | 0.832
3 | NCI-H2228 | 0.639 | 0.527 | 0.651 | 0.733 | 0.313 | 0.487 | 0.324 | 0.388 | 0.317 | 1.12 | 1.08 | 1.07 | 0.676 | 0.721 | 0.768 | 0.633 | 0.687 | 0.871
4 | EMC-BAC-2 | 0.532 | 0.522 | 0.496 | 0.582 | 0.629 | 0.497 | 0.589 | 0.51 | 0.505 | 1 | 0.852 | 0.867 | 0.881 | 0.47 | – | 0.485 | 0.447 | 0.303
5 | NCI-H2009 | 0.735 | 0.672 | 0.746 | 0.715 | 0.497 | 0.488 | 0.46 | 0.4 | 0.408 | 0.917 | 0.595 | 0.914 | 0.958 | 0.847 | 0.73 | 0.692 | 0.697 | 0.7
6 | NCI-H596 | 0.687 | 0.589 | 0.636 | 0.531 | 0.691 | 0.806 | 0.72 | 0.733 | 0.737 | 1.04 | 1.05 | 1.01 | 0.964 | 0.586 | 0.546 | 0.616 | 0.592 | 0.594
7 | NCI-H650 | 0.45 | 0.356 | 0.443 | 0.4 | 0.468 | 0.405 | 0.48 | 0.445 | 0.445 | 0.907 | – | 1.02 | 0.964 | 0.408 | 0.42 | 0.468 | 0.368 | 0.417
8 | NCI-H1915 | 0.492 | 0.496 | 0.49 | 0.568 | 0.359 | 0.37 | 0.365 | 0.386 | 0.398 | 0.95 | 0.985 | 1 | 0.996 | 0.529 | 0.516 | 0.487 | 0.511 | 0.459
9 | SW 1573 | 1.04 | 0.53 | 0.75 | 0.67 | 0.426 | 0.44 | 0.331 | 0.446 | 0.348 | 1.16 | 0.97 | 0.928 | 1.07 | 0.961 | 0.624 | 0.995 | 0.929 | 0.606
10 | NCI-H1355 | 0.611 | 0.571 | 0.675 | 0.61 | 0.506 | 0.463 | 0.445 | 0.406 | 0.381 | 1.04 | 0.928 | 0.899 | 1.09 | 0.661 | 0.674 | 0.626 | 0.706 | 0.481
11 | NCI-H1651 | 0.554 | 0.612 | 0.559 | 0.542 | 0.331 | 0.36 | 0.35 | 0.336 | 0.308 | 0.866 | 0.691 | 0.799 | 0.929 | 0.604 | 0.488 | 0.583 | 0.51 | 0.538
12 | NCI-H2023 | 0.698 | 0.676 | 0.62 | 0.516 | 0.407 | 0.415 | 0.409 | 0.441 | 0.376 | 0.884 | 0.735 | 0.703 | 0.577 | 0.705 | 0.531 | 0.617 | 0.813 | 0.634
13 | LU99A | 0.514 | 0.438 | 0.456 | 0.47 | 0.95 | 0.748 | 0.818 | 0.902 | 0.822 | 0.987 | 1.14 | 0.889 | 0.905 | 0.58 | 0.576 | 0.43 | 0.501 | 0.455
14 | NCI-H3122 | 1.09 | 0.943 | 0.947 | 1.11 | 0.383 | 0.344 | 0.368 | 0.313 | 0.318 | 1.08 | 0.94 | 0.973 | 1.01 | 0.976 | 0.938 | 0.765 | 1.14 | 0.796
15 | LOU-NH91 | 0.838 | 0.811 | 0.916 | 0.749 | 0.862 | 0.657 | 0.711 | 0.667 | 0.692 | 0.83 | 0.702 | 0.78 | 0.72 | 0.996 | 0.913 | 0.878 | 0.886 | 0.867
16 | NCI-H647 | 0.541 | 0.598 | 0.579 | 0.962 | 0.546 | 0.612 | 0.551 | 0.463 | 0.481 | 1.09 | 0.86 | 0.86 | 1.07 | 0.631 | 0.66 | 0.366 | 0.679 | 0.722
